Test results: patent publication US20080146576A1, “N-(1-Phthalazin-1-ylpiperidin-4-yl)amides as EP2 receptor modulators” (priority 2006, published 2008)
Like-named read-outs stand apart in the source and are kept apart here.

How the values were obtained:
[1] = molecular target: T1, human prostaglandin E2 (subtype EP2) receptor (Homo sapiens, UniProt P43116); assay: cAMP antagonism assay (HTRF cAMP, PGE2-stimulated cells); type: cell-based
T1 construct: host or cells: cells on a cell culture plate
Protocol: (§1) The binding of PGE2 to the EP2 subtype of the human PGE2 receptor induces activation of membrane-associated adenylate cyclases and leads to the formation of cAMP. In the presence of the phosphodiesterase inhibitor IBMX, cAMP which has accumulated due to this stimulation and been released by cell lysis is employed in a competitive detection method. In this assay, the cAMP in the lysate competes with cAMP-XL665 for binding of an Eu cryptate-labeled anti-cAMP antibody.
(§2) The two signals are measured in a suitable measuring instrument with a time lag, i.e. after the background fluorescence has declined.
(§3) The substance solutions (0.75 μl) containing 30% DMSO are introduced into an assay plate and dissolved in 16 μl of a KRSB+IBMX stimulation solution (1× Krebs-Ringer Bicarbonate Buffer; Sigma-Aldrich # K-4002; including 750 μM 3-isobutyl-1-methylxanthine Sigma-Aldrich # I-7018), and then 15 μl, thereof are transferred into a media-free cell culture plate which has been washed with KRSB shortly beforehand.
After preincubation at room temperature (RT) for 30 minutes, 5 μl of a 4×PGE2 solution (11 nM) are added, and incubation is carried out in the presence of the agonist at RT for a further 60 min (volume: ˜20 μl) before the reaction is then stopped by adding 5 μl of lysis buffer and incubated at RT for a further 20 min (volume: ˜25 μl). The cell lysate is then transferred into a measuring plate and measured in accordance with the manufacturer's information (cyclic AMP kit Cisbio International #62AMPPEC).

[2] = molecular target: T1, human prostaglandin E2 (subtype EP2) receptor; assay: cAMP agonism assay (HTRF cAMP); type: cell-based
Protocol: as §1, §2
as §3, with “μl” for “μl,”
After incubation at room temperature (RT; volume: ˜15 μl) for 60 minutes, the reaction is then stopped by adding 5 μl of lysis buffer and incubated at RT for a further 20 min (volume: ˜20 μl). The cell lysate is then transferred into a measuring plate and measured in accordance with the manufacturer's information (cyclic AMP kit Cisbio International #62AMPPEC).

[3] = tested on: cumulus-oocyte complexes; assay: Cumulus expansion assay in vitro; type: cell-based, mice; conditions: competing with PGE2
Protocol: Folliculogenesis is induced in immature female mice (strain: CD1 (ICR) from Charles River) at an age of 14-18 days by a single dose (intraperitoneally) of 10 I.U. of PMSG (Pregnant Mare Serum Gonadotropin; Sigma G-4877, Batch 68H0909). 47-50 hours after the injection, the ovaries are removed and the cumulus-oocyte complexes are removed. The cumulus complex is not yet expanded at this stage.
The cumulus-oocyte complexes are then incubated with prostaglandin E2 (PGE2) (1 μM), vehicle control (ethanol) or test substances for 20-24 hours. Medium: alpha-MEM medium with 0.1 mM IBMX, pyruvates (0.23 mM), glutamines (2 mM), pen/strep (100 IU/ml pen. and 100 μg/ml strep.) and HSA (8 mg/ml). Cumulus expansion is then established through the division into four stages (according to Vanderhyden et al. Dev Biol. 1990 August; 140(2):307-317).

[4] = cAMP assay in presence of PGE2, read-out: Antagonism [IC50
[5] = cAMP assay, no PGE2 added, read-out: Agonism [ED50

T1 sequence (P43116 whole entry): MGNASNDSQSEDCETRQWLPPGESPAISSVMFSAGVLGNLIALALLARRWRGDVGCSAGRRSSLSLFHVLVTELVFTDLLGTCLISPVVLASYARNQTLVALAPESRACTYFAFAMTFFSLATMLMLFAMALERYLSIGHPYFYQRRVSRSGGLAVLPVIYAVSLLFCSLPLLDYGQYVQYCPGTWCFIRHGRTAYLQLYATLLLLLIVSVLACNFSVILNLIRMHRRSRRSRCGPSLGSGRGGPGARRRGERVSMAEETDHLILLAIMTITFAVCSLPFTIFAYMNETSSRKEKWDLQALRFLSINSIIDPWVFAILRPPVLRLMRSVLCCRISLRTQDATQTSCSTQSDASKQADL

Compound	IC50 [1, 4]	EC50 [2, 5]	IC50 ([1]; read-out: IC50 in the antagonism test)	EC50 ([2]; read-out: EC50 in the cellular agonism test)	suppression of cumulus expansion ([3]; at a concentration of 100-200 μM)	suppression of cumulus expansion ([3]; at one tenth of the concentration (of 100-200 μM))
Cc1nnc(N2CCC(NC(=O)c3cccc(Cl)c3Cl)CC2)c2cc(Br)ccc12 [Example 3, N-[1-(7-Bromo-4-methyl-phthalazin-1-yl)-piperidin-4-yl]-2,3-dichloro-benzamide]	700 nM	> 19000 nM				
CC(C)Oc1ccc2c(=O)c3cc(C(=O)O)ccc3oc2c1 [AH 6809, reference compound]					about 20%	

Further lines, with some results ahead:

IC50 [1, 4]	EC50 [2, 5]	IC50 ([1]; read-out: IC50 in the antagonism test)	EC50 ([2]; read-out: EC50 in the cellular agonism test)	Compound	suppression of cumulus expansion ([3]; at a concentration of 100-200 μM)	suppression of cumulus expansion ([3]; at one tenth of the concentration (of 100-200 μM))
500 nM	> 19000 nM			Cc1nnc(N2CCC(NC(=O)c3cccc(Cl)c3Cl)CC2)c2ccc(Br)cc12 [Example 4, N-[1-(6-Bromo-4-methyl-phthalazin-1-yl)-piperidin-4-yl]-2,3-dichloro-benzamide]		
300 nM	> 19000 nM			O=C(NC1CCN(c2nncc3ccc(Br)cc23)CC1)c1cccc(Cl)c1Cl [Example 1, N-[1-(7-Bromo-phthalazin-1-yl)-piperidin-4-yl]-2,3-dichloro-benzamide]		
	> 19000 nM	200 nM	> 19000 nM	O=C(NC1CCN(c2nncc3cc(Br)ccc23)CC1)c1cccc(Cl)c1Cl [Example 2, N-[1-(6-Bromo-phthalazin-1-yl)-piperidin-4-yl]-2,3-dichloro-benzamide]		35%
